Data: PMC2213532 (The Journal of Experimental Medicine, 2000)
Residues, ends and D or L forms follow the SMILES beside them.

Columns and labels:
soluble H-2D^b [1] = target: soluble H-2D^b (Mus musculus, UniProt P01899); assay: biochemical; assay type: binding
soluble H-2D^b [2] = assay: radioligand binding

soluble H-2D^b (Mus musculus, UniProt P01899), sequence (P01899 25-362): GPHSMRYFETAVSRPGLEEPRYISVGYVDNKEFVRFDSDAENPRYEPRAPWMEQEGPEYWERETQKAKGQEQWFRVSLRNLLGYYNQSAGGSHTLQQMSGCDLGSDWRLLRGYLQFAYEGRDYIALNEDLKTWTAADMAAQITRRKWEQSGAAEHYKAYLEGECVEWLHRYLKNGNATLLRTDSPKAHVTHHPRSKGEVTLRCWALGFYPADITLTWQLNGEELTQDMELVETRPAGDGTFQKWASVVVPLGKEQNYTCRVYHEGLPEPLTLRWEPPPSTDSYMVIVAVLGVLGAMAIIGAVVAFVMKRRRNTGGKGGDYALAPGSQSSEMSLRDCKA
soluble H-2D^b (Mus musculus, UniProt P01899), sequence (P01887 21-119, further chain): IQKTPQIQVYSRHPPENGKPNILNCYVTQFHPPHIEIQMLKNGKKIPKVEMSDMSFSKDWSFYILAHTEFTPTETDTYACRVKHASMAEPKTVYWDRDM

| Compound | IC50 (soluble H-2D^b [1]) [nM] | IC50 (soluble H-2D^b [2]) [nM] |
| --- | --- | --- |
| CSCC[C@H](NC(=O)[C@@H](NC(=O)[C@H](CC(=O)O)NC(=O)[C@H](CCSC)NC(=O)[C@H](CC(N)=O)NC(=O)[C@H](CCC(=O)O)NC(=O)[C@H](CC(N)=O)NC(=O)[C@H](CO)NC(=O)[C@H](C)N)[C@@H](C)O)C(=O)O [NP366-374] (H-ASNENMDTM-OH) | 6 |  |
| NP_(366-374) peptide of A/Memphis/102/72 |  | 6 |
